Experimental data as given in patent EP4603105A1, “PHARMACEUTICAL COMPOSITION CONTAINING CYCLIC COMPOUND HAVING SELECTIVE KRAS INHIBITORY EFFECT AGAINST HRAS AND NRAS” (CHUGAI SEIYAKU KABUSHIKI KAISHA, priority 2022, dated 2024).
Where a SMILES comes first, the peptide text is derived from it. Bridges are numbered along the chain shown (N, C = ends). [ ]: non-standard residue; d: D form. The star is where a group is joined. hPhe(3-Cl-4-CF3) = N[C@@H](CCc1ccc(C(F)(F)F)c(Cl)c1)C(=O)O; NPrPhe(4-Me) = CCCN[C@@H](Cc1ccc(C)cc1)C(=O)O; NMePhe(4-Me) = CN[C@@H](Cc1ccc(C)cc1)C(=O)O; NMeGly(cPent) = CN[C@H](C(=O)O)C1CCCC1; Aze(3S-Me) = C[C@H]1CN[C@@H]1C(=O)O; NMeD = CN[C@@H](CC(=O)O)C(=O)O; NMeL = CN[C@@H](CC(C)C)C(=O)O; Morpholide = C1CN(*)CCO1; NMeA = CN[C@@H](C)C(=O)O; NMeAib = CNC(C)(C)C(=O)O; Nle = CCCC[C@H](N)C(=O)O; Piperidide = C1CCN(*)CC1; Ac5c = NC1(C(=O)O)CCCC1; Sar = CNCC(=O)O

Columns and labels:
HRAS wild-type protein = HRAS wild-type protein (Homo sapiens, UniProt P01112); assay: Binding to HRAS by surface plasmon resonance (SPR), KD and KD ratio to KRAS
HRAS wild-type protein, sequence (P01112 whole entry): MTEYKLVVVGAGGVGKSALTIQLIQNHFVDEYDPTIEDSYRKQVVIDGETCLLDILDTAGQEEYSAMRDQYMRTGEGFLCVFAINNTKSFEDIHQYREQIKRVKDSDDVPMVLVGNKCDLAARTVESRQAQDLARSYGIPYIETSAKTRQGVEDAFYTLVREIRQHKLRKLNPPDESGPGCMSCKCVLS
Method in brief: (§1)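 Each cycle, GDP-bound biotin-Avi RAS was captured (~100–300 RU), compound concentrations were injected low to high for 75 s each at 100 µL/min, then the chip was regenerated. Buffer: HBS pH 7.4, 10 mM MgCl2, 10 µM GDP, 1 mM DTT, 4% DMSO; 30°C. KD from a 1:1 binding model.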

[1] = test system: human lung cancer strain NCI-H441; format: cell-based
Method in brief: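 Signal came from […] measured per well once the reagent was added. Beforehand, cells were cultured at 37°C and 5% carbon dioxide on a compound series serially diluted in dimethyl sulfoxide.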

[2] = molecular target: GDP-bound NRAS wild-type protein (Homo sapiens, UniProt P01111); assay: Binding to NRAS by surface plasmon resonance (SPR), KD and KD ratio to KRAS
GDP-bound NRAS wild-type protein, sequence (P01111 whole entry): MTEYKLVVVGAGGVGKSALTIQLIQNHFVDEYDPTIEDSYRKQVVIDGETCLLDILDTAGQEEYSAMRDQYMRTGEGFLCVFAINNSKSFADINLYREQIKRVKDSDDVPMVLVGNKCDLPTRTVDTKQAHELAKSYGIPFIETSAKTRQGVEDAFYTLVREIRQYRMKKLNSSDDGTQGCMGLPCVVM
Method in brief: as §1

[3] = ratio of KD value for HRAS wild-type protein to KD value for KRAS (SPR)
[4] = ratio of KD value for GDP-bound NRAS wild-type protein to KD value for KRAS (SPR)
[5] = ratio of KD for HRAS wild-type protein to KD for KRAS
[6] = ratio of KD for GDP-bound NRAS wild-type protein to KD for KRAS

Row | SMILES | IC50 [1] | HRAS /KRAS (HRAS wild-type protein; [3]) | NRAS /KRAS [2, 4] | HRAS /KRAS (HRAS wild-type protein; [5]) | NRAS /KRAS [2, 6] | HRAS /KRAS (HRAS wild-type protein; ratio of the KD value with respect to HRAS wild-type protein to the KD value with respect to KRAS) | NRAS /KRAS ([2]; ratio of the KD value with respect to GDP-bound NRAS wild-type protein to the KD value with respect to KRAS)
1 | CCCN1C(=O)[C@@H]2[C@@H](C)CN2C(=O)[C@H](C)N(C)C(=O)[C@H]([C@@H](C)CC)NC(=O)[C@H](CC(C)C)N(C)C(=O)C[C@@H](C(=O)N2CCOCC2)N(C)C(=O)[C@H](C2CCCC2)N(C)C(=O)C2(CCCC2)NC(=O)[C@@H]2CCCN2C(=O)[C@H](CCc2ccc(C(F)(F)F)c(Cl)c2)NC(=O)CN(C)C(=O)[C@@H]1Cc1ccc(C)cc1 [PP0138] ([NMeL]I[NMeA][Aze(3S-Me)][NPrPhe(4-Me)][Sar][hPhe(3-Cl-4-CF3)]P[Ac5c][NMeGly(cPent)][NMeD]-Morpholide; lactam N-11) | 20.6 nM | – | – | C (A compound having a KD ratio of 0.1 or more and less than 3 is denoted as C) | C (A compound having a KD ratio of 0.1 or more and less than 3 is denoted as C) | – | –
2 | CC[C@H](C)[C@@H]1NC(=O)[C@H](CC(C)C)N(C)C(=O)C[C@@H](C(=O)N2CCOCC2)N(C)C(=O)[C@H](C2CCCC2)N(C)C(=O)C2(CCCC2)NC(=O)[C@@H]2CCCN2C(=O)[C@H](CCc2ccc(C(F)(F)F)c(Cl)c2)NC(=O)CN(C)C(=O)[C@H](Cc2ccc(OC)cc2)N2CC=CC[C@@H](C2=O)N(C)C(=O)CN(C)C1=O [PP0535] | 55.4 nM | – | – | – | – | B (a compound having 3 or more and less than 10 is denoted as B) | C (A compound having a KD ratio of 0.1 or more and less than 3 is denoted as C)
3 | CCCN(C)C(=O)[C@@H]1CC(=O)N(C)[C@@H](C)C(=O)N[C@@H]([C@@H](C)CC)C(=O)N(C)CC(=O)N(C)[C@H]2C/C=C\CCN(C2=O)[C@@H](Cc2ccc(C(F)(F)F)cc2)C(=O)N(C)CC(=O)N[C@@H](CCc2cc(F)c(C(F)(F)F)c(F)c2)C(=O)N2C[C@H](F)C[C@H]2C(=O)NC2(CC(C)(C)C2)C(=O)N(C)[C@@H](C2CCCC2)C(=O)N1C [PP1663] | 3.6 nM | A (a compound having 10 or more and less than 20 is denoted as A) | AA (a compound having 20 or more is denoted as AA) | – | – | – | –
4 | CCCC[C@@H]1NC(=O)[C@H](CCc2ccc(C(F)(F)F)c(Cl)c2)NC(=O)CN(C)C(=O)[C@H](Cc2ccc(C)cc2)N(C)C(=O)CN(C)C(=O)CN(C)C(=O)[C@H]([C@@H](C)CC)NC(=O)[C@H](CC(C)C)N(C)C(=O)C[C@@H](C(=O)N2CCCCC2)N(C)C(=O)[C@H](CC(C)C)NC(=O)C(C)(C)N(C)C1=O [PP0049] ([NMeL]I[Sar][Sar][NMePhe(4-Me)][Sar][hPhe(3-Cl-4-CF3)][Nle][NMeAib]L[NMeD]-Piperidide; lactam N-11) | 201 nM | – | – | C (A compound having a KD ratio of 0.1 or more and less than 3 is denoted as C) | C (A compound having a KD ratio of 0.1 or more and less than 3 is denoted as C) | – | –

Second part, led by results:

Row | IC50 [1] | SMILES | HRAS /KRAS (HRAS wild-type protein; [3]) | NRAS /KRAS [2, 4] | HRAS /KRAS (HRAS wild-type protein; [5]) | NRAS /KRAS [2, 6] | HRAS /KRAS (HRAS wild-type protein; ratio of the KD value with respect to HRAS wild-type protein to the KD value with respect to KRAS) | NRAS /KRAS ([2]; ratio of the KD value with respect to GDP-bound NRAS wild-type protein to the KD value with respect to KRAS)
5 | 3.6 nM | CCC[C@H]1C(=O)N[C@@H]([C@@H](C)CC)C(=O)N(C)CC(=O)N(C)[C@H]2C/C=C\CCN(C2=O)[C@@H](Cc2ccc(C(F)(F)F)cc2)C(=O)N(C)CC(=O)N[C@@H](CCc2cc(F)c(C(F)(F)F)c(F)c2)C(=O)N2C[C@H](OCC)C[C@H]2C(=O)NC2(CC(F)(F)C2)C(=O)N(C)[C@@H](C2CCCC2)C(=O)N(C)[C@H](C(=O)N(C)CCC)CC(=O)N1C [PP1736] | A (a compound having 10 or more and less than 20 is denoted as A) | A (a compound having 10 or more and less than 20 is denoted as A) | – | – | – | –
6 | 4.3 nM | CCCC[C@H]1C(=O)N[C@@H]([C@@H](C)CC)C(=O)N(C)CC(=O)N(C)[C@H]2C/C=C\CCN(C2=O)[C@@H](Cc2ccc(C(F)(F)F)cc2)C(=O)N(C)CC(=O)N[C@@H](CCc2cc(F)c(C(F)(F)F)c(F)c2)C(=O)N2CC(F)(F)C[C@H]2C(=O)NC2(CC(C)(C)C2)C(=O)N(C)[C@@H](C2CCCC2)C(=O)N(C)[C@H](C(=O)N(C)C)CC(=O)N1C [PP1714] | A (a compound having 10 or more and less than 20 is denoted as A) | A (a compound having 10 or more and less than 20 is denoted as A) | – | – | – | –
